The target of one data set is T1, COX-2 (Homo sapiens, UniProt P35354).
T1 sequence (P35354 18-604): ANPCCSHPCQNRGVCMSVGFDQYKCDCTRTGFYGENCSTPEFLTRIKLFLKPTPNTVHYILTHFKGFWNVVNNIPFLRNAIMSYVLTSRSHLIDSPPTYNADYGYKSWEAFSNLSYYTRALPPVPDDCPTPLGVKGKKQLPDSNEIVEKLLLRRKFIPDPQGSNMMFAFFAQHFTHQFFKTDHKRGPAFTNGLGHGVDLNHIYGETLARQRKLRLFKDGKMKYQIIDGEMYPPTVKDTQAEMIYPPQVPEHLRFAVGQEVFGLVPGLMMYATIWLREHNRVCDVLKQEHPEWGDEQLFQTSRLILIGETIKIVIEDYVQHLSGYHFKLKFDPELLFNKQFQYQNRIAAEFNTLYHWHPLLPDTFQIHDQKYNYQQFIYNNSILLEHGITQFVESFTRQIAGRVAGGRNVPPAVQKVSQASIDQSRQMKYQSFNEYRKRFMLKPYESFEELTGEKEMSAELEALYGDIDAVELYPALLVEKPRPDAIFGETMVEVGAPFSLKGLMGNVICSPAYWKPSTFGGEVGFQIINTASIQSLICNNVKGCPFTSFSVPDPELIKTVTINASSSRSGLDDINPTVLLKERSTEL
In words: in vitro activity of COX-2. It counts as biochemical.

A short description of data set [1]: Comparative dissolution of crystalline Form B and amorphous compound. The settings on record: 150 mg in 900 mL, 37° C., paddle speed 100 rpm, particle size 212-425 μm, HPLC. It is filed as physicochemical. The procedure:
Dissolution rates for the crystalline compound having Form B and the amorphous compound were determined and compared in two media: water and simulated intestinal fluid (SIF) minus pancreatin.
Initial materials were sieved and material with a particle size between 212 and 425 μm was used for the study. A 150 mg sample was added to 900 mL of fluid in a dissolution bath. A temperature of 37° C. and a paddle speed of 100 rpm were used for the dissolution. Samples were pulled at specific time points (5, 15, 30 120, and 240 min) and filtered through a 0.2 μm nylon filter. Samples were analyzed by HPLC.

Data set [2] can be described thus: heat stability to withstand spray drying. It is filed as physicochemical. The settings on record: temperature range of from about 40° C. to about 100° C.

As for `Cc1nc(C2CCCCC2)c(-c2ccc(S(N)(=O)=O)c(F)c2)o1` [amorphous compound, 5-(4-aminosulfonyl-3-fluorophenyl)-4-cyclohexyl-2-methyloxazole], the “inhibits in vitro activity of COX-2” value against COX-2 was “nanomolar range”. In data set [1], the “dissolution rate in simulated intestinal fluid (SIF) minus pancreatin” value is given as “dissolved more rapidly” and the “dissolution rate in water” value is “dissolved more rapidly”.
Consider `Cc1nc(C2CCCCC2)c(-c2ccc(S(N)(=O)=O)c(F)c2)o1` [crystalline compound having Form B, 5-(4-aminosulfonyl-3-fluorophenyl)-4-cyclohexyl-2-methyloxazole], for which, in data set [1], the “dissolution rate in simulated intestinal fluid (SIF) minus pancreatin” value is given as “significantly slower dissolution rate than the amorphous form” and the “dissolution rate in water” value is recorded as “significantly slower dissolution rate than the amorphous form”.
With `Cc1nc(C2CCCCC2)c(-c2ccc(S(N)(=O)=O)c(F)c2)o1` [5-(4-aminosulfonyl-3-fluorophenyl)-4-cyclohexyl-2-methyloxazole], the heat stability entry in data set [2] is “sufficient heat stability”.

The record behind these values is patent publication US20020032226A1, “Novel form of an oxazole compound” (priority 2000, published 2002).
